Assay results from EP1004870A1, “Liquid barriers for assays” (Aurora Biosciences Corporation, priority 1998, dated 2000).
“And” between values parts separate entries of the source, which are not always exact repeats. Identical values can stand only once. Like-named read-outs stand apart in the source and are kept apart here.

Target: T1, M1 receptor (Homo sapiens, UniProt P11229)
T1 sequence (P11229 1-460): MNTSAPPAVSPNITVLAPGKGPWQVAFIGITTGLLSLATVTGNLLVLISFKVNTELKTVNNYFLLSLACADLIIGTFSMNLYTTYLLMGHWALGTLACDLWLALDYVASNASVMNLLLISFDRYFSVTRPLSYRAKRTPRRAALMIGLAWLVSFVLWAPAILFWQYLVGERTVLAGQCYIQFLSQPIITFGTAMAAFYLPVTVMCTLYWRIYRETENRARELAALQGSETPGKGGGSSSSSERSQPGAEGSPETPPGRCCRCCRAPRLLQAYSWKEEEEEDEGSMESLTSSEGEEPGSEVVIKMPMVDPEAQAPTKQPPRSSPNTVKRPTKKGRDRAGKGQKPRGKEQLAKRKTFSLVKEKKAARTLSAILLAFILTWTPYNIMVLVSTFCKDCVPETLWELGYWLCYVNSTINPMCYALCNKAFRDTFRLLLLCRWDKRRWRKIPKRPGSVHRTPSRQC
Assay: Antagonist assay: beta-lactamase expression in carbachol-stimulated Jurkat C2 cells (CCF2/AM fluorescence read-out), mechanical vs liquid barrier

[1] = Liquid barrier (silicone oil, Dow Corning Silicone 200 Fluid 5.0 cs), cells stimulated with carbachol, 96-well plate
[2] = Mechanical barrier (polystyrene lid), cells stimulated with carbachol, 96-well plate

| Compound | Percent inhibition of beta- lactamase expression in C2 cells in response to the presence of the indicated chemical | Percent inhibition of beta- lactamase expression in C2 cells in response to the presence of the indicated chemical [1] | Percent inhibition of beta- lactamase expression in C2 cells in response to the presence of the indicated chemical [2] |
| --- | --- | --- | --- |
| C[N+]12CCC(CC1)C(OC(=O)C(O)(c1ccccc1)c1ccccc1)C2 (stereo not drawn) [Clidinium] | 82% and 91% | – | – |
| CCN(CC)C(C)CN1c2ccccc2Sc2ccccc21 (stereo not drawn) [Ethopropazine] | – | 43% | 88% |
| C[N+]1(C)CCCC(OC(=O)C(O)(c2ccccc2)c2ccccc2)C1 (stereo not drawn) [Mepenzolate] | – | 90% | 91% |
| CC(C)[N+](C)(CCOC(=O)C1c2ccccc2Oc2ccccc21)C(C)C [Propantheline] | – | 95% | 95% |
| Isopropamine | – | 78% | 91% |
